Assay results from patent US20240400564A1 (Syndax Pharmaceuticals, Inc, priority 2021, published 2024).

Target: hERG (Homo sapiens, UniProt Q12809)
Assay: Patch clamp assay (hERG tail currents, whole-cell)

Chain of hERG (Q12809 whole entry): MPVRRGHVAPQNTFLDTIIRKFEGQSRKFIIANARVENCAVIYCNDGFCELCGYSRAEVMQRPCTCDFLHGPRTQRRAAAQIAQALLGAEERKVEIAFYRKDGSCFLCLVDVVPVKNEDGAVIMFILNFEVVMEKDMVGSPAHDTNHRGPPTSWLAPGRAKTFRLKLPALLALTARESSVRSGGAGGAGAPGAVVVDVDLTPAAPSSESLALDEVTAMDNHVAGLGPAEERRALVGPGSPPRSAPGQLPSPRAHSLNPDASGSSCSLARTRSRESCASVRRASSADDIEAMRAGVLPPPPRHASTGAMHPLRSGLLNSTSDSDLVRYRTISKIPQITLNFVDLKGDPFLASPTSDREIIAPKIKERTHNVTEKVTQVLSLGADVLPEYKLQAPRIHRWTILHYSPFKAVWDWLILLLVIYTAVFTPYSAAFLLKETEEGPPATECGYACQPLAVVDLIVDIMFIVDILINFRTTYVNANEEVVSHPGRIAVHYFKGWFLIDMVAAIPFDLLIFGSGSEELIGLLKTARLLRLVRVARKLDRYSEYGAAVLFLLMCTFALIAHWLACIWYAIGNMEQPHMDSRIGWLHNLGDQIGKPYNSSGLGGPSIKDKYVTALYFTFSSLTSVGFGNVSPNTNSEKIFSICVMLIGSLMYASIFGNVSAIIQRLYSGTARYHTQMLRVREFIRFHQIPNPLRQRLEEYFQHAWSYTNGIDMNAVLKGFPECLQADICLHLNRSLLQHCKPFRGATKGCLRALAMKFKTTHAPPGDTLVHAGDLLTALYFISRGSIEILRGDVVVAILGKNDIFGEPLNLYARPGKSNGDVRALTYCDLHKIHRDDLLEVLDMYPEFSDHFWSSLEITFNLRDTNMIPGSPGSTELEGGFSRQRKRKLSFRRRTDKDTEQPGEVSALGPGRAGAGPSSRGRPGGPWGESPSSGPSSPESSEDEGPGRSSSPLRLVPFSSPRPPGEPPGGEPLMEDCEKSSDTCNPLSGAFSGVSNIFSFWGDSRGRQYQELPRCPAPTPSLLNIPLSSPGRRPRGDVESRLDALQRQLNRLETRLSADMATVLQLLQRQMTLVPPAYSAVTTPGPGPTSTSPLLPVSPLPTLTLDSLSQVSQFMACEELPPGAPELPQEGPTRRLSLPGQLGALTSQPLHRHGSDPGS

| Compound | hERG % Remaining (30 μM compound) | hERG % Remaining (10 μM compound) | also measured |
| --- | --- | --- | --- |
| CNS(=O)(=O)N[C@@H]1CC[C@@H](CN2CCC3(CC2)CN(c2ncncc2Oc2ccc(F)cc2C(=O)N(CC(F)F)C(C)C)C3)OC1 [Example 102, N-(2,2-Difluoroethyl)-5-fluoro-N-isopropyl-2-((4-(7-(((2S,5R)-5-((N-methylsulfamoyl)amino)tetrahydro-2H-pyran-2-yl)methyl)-2,7-diazaspiro[3.5]nonan-2-yl)pyrimidin-5-yl)oxy)benzamide] | +++ (≥66%) |  |  |
| C[C@@H]1COC[C@@H](C)N1C(=O)c1cc(F)ccc1Oc1cncnc1N1CC2(CCN(C[C@@H]3CC[C@@H](NS(=O)(=O)N4CCC4)CO3)CC2)C1 [Example 121, N-((3R,6S)-6-((2-(5-(2-((3R,5R)-3,5-Dimethylmorpholine-4-carbonyl)-4-fluorophenoxy)pyrimidin-4-yl)-2,7-diazaspiro[3.5]nonan-7-yl)methyl)tetrahydro-2H-pyran-3-yl)azetidine-1-sulfonamide] | +++ (≥66%) |  |  |
| CC(C)N(C(=O)c1cc(F)ccc1Oc1cncnc1N1CC2(CCN(C[C@@H]3CC[C@@H](NS(=O)(=O)N4CCC4)CO3)CC2)C1)C1CC(F)(F)C1 [Example 118, 2-((4-(7-(((2S,5R)-5-(Azetidine-1-sulfonamido)tetrahydro-2H-pyran-2-yl)methyl)-2,7-diazaspiro[3.5]nonan-2-yl)pyrimidin-5-yl)oxy)-N-(3,3-difluorocyclobutyl)-5-fluoro-N-isopropylbenzamide] | + (<33%) | ++ (233% and ≤66%) |  |
| CCN(CC)S(=O)(=O)N[C@@H]1CC[C@@H](CN2CCC3(CC2)CN(c2ncncc2Oc2ccc(F)cc2C(=O)N(CC(F)F)C(C)C)C3)OC1 [Example 97, 2-((4-(7-(((2S,5R)-5-((N,N-Diethylsulfamoyl)amino)tetrahydro-2H-pyran-2-yl)methyl)-2,7-diazaspiro[3.5]nonan-2-yl)pyrimidin-5-yl)oxy)-N-(2,2-difluoroethyl)-5-fluoro-N-isopropylbenzamide] | + (<33%) | ++ (233% and ≤66%) |  |
| CC(C)N(CC(F)F)C(=O)c1cc(F)ccc1Oc1cncnc1N1CC2(CCN(C[C@@H]3CC[C@@H](NS(=O)(=O)N(C)CCCO)CO3)CC2)C1 [Example 214, N-(2,2-difluoroethyl)-5-fluoro-2-((4-(7-(((2S,5R)-5-((N-(3-hydroxypropyl)-N-methylsulfamoyl)amino)tetrahydro-2H-pyran-2-yl)methyl)-2,7-diazaspiro[3.5]nonan-2-yl)pyrimidin-5-yl)oxy)-N-isopropylbenzamide] | +++ (≥66%) |  |  |
| CC(C)N(CC(F)F)C(=O)c1cc(F)ccc1Oc1cncnc1N1CC2(CCN(C[C@@H]3CC[C@@H](NS(=O)(=O)NC4CC4)CO3)CC2)C1 [Example 149, 2-((4-(7-(((2S,5R)-5-((N-Cyclopropylsulfamoyl)amino)tetrahydro-2H-pyran-2-yl)methyl)-2,7-diazaspiro[3.5]nonan-2-yl)pyrimidin-5-yl)oxy)-N-(2,2-difluoroethyl)-5-fluoro-N-isopropylbenzamide] | +++ (≥66%) |  |  |
| CC(C)N(C(=O)c1cc(F)ccc1Oc1cncnc1N1CC2(CCN(C[C@@H]3CC[C@@H](NS(=O)(=O)N(C)C)CO3)CC2)C1)C1COC1 [Example 249, 2-((4-(7-(((2S,5R)-5-((N,N-Dimethylsulfamoyl)amino)tetrahydro-2H-pyran-2-yl)methyl)-2,7-diazaspiro[3.5]nonan-2-yl)pyrimidin-5-yl)oxy)-5-fluoro-N-isopropyl-N-(oxetan-3-yl)benzamide] | +++ (≥66%) |  |  |
| CCN(CC)S(=O)(=O)N[C@@H]1CC[C@@H](CN2CCC3(CC2)CN(c2ncncc2Oc2ccc(F)cc2C(=O)N(C(C)C)[C@@H]2CCOC2)C3)OC1 [Example 165, 2-((4-(7-(((2S,5R)-5-((N,N-Diethylsulfamoyl)amino)tetrahydro-2H-pyran-2-yl)methyl)-2,7-diazaspiro[3.5]nonan-2-yl)pyrimidin-5-yl)oxy)-5-fluoro-N-isopropyl-N-((R)-tetrahydrofuran-3-yl)benzamide] | ++ (233% and ≤66%) | +++ (≥66%) |  |
| CC(C)N(C(=O)c1cc(F)ccc1Oc1cncnc1N1CC2(CCN(C[C@@H]3CC[C@@H](NS(=O)(=O)N(C)C)CO3)CC2)C1)C1CC1 [Example 93, N-Cyclopropyl-2-((4-(7-(((2S,5R)-5-((N,N-dimethylsulfamoyl)amino)tetrahydro-2H-pyran-2-yl)methyl)-2,7-diazaspiro[3.5]nonan-2-yl)pyrimidin-5-yl)oxy)-5-fluoro-N-isopropylbenzamide] | ++ (233% and ≤66%) | +++ (≥66%) | hERG % Remaining (1 μM compound): +++ (≥66%); hERG % Remaining (3 μM compound): +++ (≥66%); hERG % Remaining (100 μM compound): + (<33%) |
| CC(C)N(C(=O)c1cc(F)ccc1Oc1cncnc1N1CC2(CCN(C[C@@H]3CC[C@@H](NS(=O)(=O)N4CCOCC4)CO3)CC2)C1)C(C)C [Example 78, 5-Fluoro-N,N-diisopropyl-2-((4-(7-(((2S,5R)-5-(morpholine-4-sulfonamido)tetrahydro-2H-pyran-2-yl)methyl)-2,7-diazaspiro[3.5]nonan-2-yl)pyrimidin-5-yl)oxy)benzamide] | +++ (≥66%) | +++ (≥66%) |  |
| CCNS(=O)(=O)N[C@@H]1CC[C@@H](CN2CCC3(CC2)CN(c2ncncc2Oc2ccc(F)cc2C(=O)N(CC)C(C)C)C3)OC1 [Example 141, N-Ethyl-2-((4-(7-(((2S,5R)-5-((N-ethylsulfamoyl)amino)tetrahydro-2H-pyran-2-yl)methyl)-2,7-diazaspiro[3.5]nonan-2-yl)pyrimidin-5-yl)oxy)-5-fluoro-N-isopropylbenzamide] | +++ (≥66%) |  |  |
| CC(C)N(CC(F)F)C(=O)c1cc(F)ccc1Oc1cncnc1N1CC2(CCN(C[C@@H]3CC[C@@H](NS(=O)(=O)NCC4CC4)CO3)CC2)C1 [Example 148, 2-((4-(7-(((2S,5R)-5-((N-(Cyclopropylmethyl)sulfamoyl)amino)tetrahydro-2H-pyran-2-yl)methyl)-2,7-diazaspiro[3.5]nonan-2-yl)pyrimidin-5-yl)oxy)-N-(2,2-difluoroethyl)-5-fluoro-N-isopropylbenzamide] | +++ (≥66%) |  |  |
| CCN(C(=O)c1cc(F)ccc1Oc1cncnc1N1CC2(CCN(C[C@@H]3CC[C@@H](NS(=O)(=O)c4ccc(OC)cc4)CO3)CC2)C1)C(C)C [Example 62, N-Ethyl-5-fluoro-N-isopropyl-2-((4-(7-(((2S,5R)-5-((4-methoxyphenyl)sulfonamido)tetrahydro-2H-pyran-2-yl)methyl)-2,7-diazaspiro[3.5]nonan-2-yl)pyrimidin-5-yl)oxy)benzamide] | + (<33%) | + (<33%) |  |
| CNS(=O)(=O)N[C@@H]1CC[C@@H](CN2CCC3(CC2)CN(c2ncncc2Oc2ccc(F)cc2C(=O)N(C(C)C)C(C)C)C3)OC1 [Example 143, 5-Fluoro-N,N-diisopropyl-2-((4-(7-(((2S,5R)-5-((N-methylsulfamoyl)amino)tetrahydro-2H-pyran-2-yl)methyl)-2,7-diazaspiro[3.5]nonan-2-5-yl)pyrimidin-5-yl)oxy)benzamide] | +++ (≥66%) |  | hERG % Remaining (100 μM compound): +++ (≥66%) |
| CC(C)N(CC(F)F)C(=O)c1cc(F)ccc1Oc1cncnc1N1CC2(CCN(C[C@@H]3CC[C@@H](NS(=O)(=O)N4CCC4)CO3)CC2)C1 [Example 99, 2-((4-(7-(((2S,5R)-5-(Azetidine-1-sulfonamido)tetrahydro-2H-pyran-2-yl)methyl)-2,7-diazaspiro[3.5]nonan-2-yl)pyrimidin-5-yl)oxy)-N-(2,2-difluoroethyl)-5-fluoro-N-isopropylbenzamide] | ++ (233% and ≤66%) | +++ (≥66%) |  |
| CCN(C(=O)c1cc(F)ccc1Oc1cncnc1N1CC2(CCN(C[C@@H]3CC[C@@H](NS(=O)(=O)c4ccccn4)CO3)CC2)C1)C(C)C [Example 58, N-ethyl-5-fluoro-N-isopropyl-2-((4-(7-(((2S,5R)-5-(pyridine-2-sulfonamido)tetrahydro-2H-pyran-2-yl)methyl)-2,7-diazaspiro[3.5]nonan-2-yl)pyrimidin-5-yl)oxy)benzamide] | ++ (233% and ≤66%) | +++ (≥66%) |  |
| CC(C)N(C(=O)c1cc(F)ccc1Oc1cncnc1N1CC2(CCN(C[C@@H]3CC[C@@H](NS(=O)(=O)N4CCC4)CO3)CC2)C1)C(C)C [Example 88, 2-((4-(7-(((2S,5R)-5-(Azetidine-1-sulfonamido)tetrahydro-2H-pyran-2-yl)methyl)-2,7-diazaspiro[3.5]nonan-2-yl)pyrimidin-5-yl)oxy)-5-fluoro-N,N-diisopropylbenzamide] | +++ (≥66%) |  |  |
| C[C@@H]1COC[C@@H](C)N1C(=O)c1cc(F)ccc1Oc1cncnc1N1CC2(CCN(C[C@@H]3CC[C@@H](NS(=O)(=O)N4CCC[C@@H]4C)CO3)CC2)C1 [Example 209, (S)-N-((3R,6S)-6-((2-(5-(2-((3R,5R)-3,5-Dimethylmorpholine-4-carbonyl)-4-fluorophenoxy)pyrimidin-4-yl)-2,7-diazaspiro[3.5]nonan-7-yl)methyl)tetrahydro-2H-pyran-3-yl)-2-methylpyrrolidine-1-sulfonamide] | +++ (≥66%) |  |  |
| C[C@@H]1COC[C@H](C)N1C(=O)c1cc(F)ccc1Oc1cncnc1N1CC2(CCN(C[C@@H]3CC[C@@H](NS(=O)(=O)c4ccccc4)CO3)CC2)C1 [Example 130, N-((3R,6S)-6-((2-(5-(2-((3S,5R)-3,5-Dimethylmorpholine-4-carbonyl)-4-fluorophenoxy)pyrimidin-4-yl)-2,7-diazaspiro[3.5]nonan-7-yl)methyl)tetrahydro-2H-pyran-3-yl)benzenesulfonamide] | ++ (233% and ≤66%) | +++ (≥66%) |  |
| CC(C)N(CC(F)F)C(=O)c1cc(F)ccc1Oc1cncnc1N1CC2(CCN(C[C@@H]3CC[C@@H](NS(N)(=O)=O)CO3)CC2)C1 [Example 240, N-(2,2-Difluoroethyl)-5-fluoro-N-isopropyl-2-((4-(7-(((2S,5R)-5-(sulfamoylamino)tetrahydro-2H-pyran-2-yl)methyl)-2,7-diazaspiro[3.5]nonan-2-yl)pyrimidin-5-yl)oxy)benzamide] | +++ (≥66%) |  |  |
